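Tested at 5 concentrations; 48 h exposure; 96-well plates; endpoints linearly interpolated, else capped at highest concentration. TGI: total growth inhibition.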
What was measured:
Experiment in all cases: DTP human tumour cell line panel, 48 h
ACHN renal = tested on: ACHN renal
CAKI-1 renal = tested on: CAKI-1 renal
DU-145 prostate = tested on: DU-145 prostate
HCT-15 colon = tested on: HCT-15 colon
HOP-92 NSCLC = tested on: HOP-92 NSCLC
M14 melanoma = tested on: M14 melanoma
MALME-3M melanoma = tested on: MALME-3M melanoma
MCF7 breast = tested on: MCF7 breast
MDA-MB-231 breast = tested on: MDA-MB-231 breast
NCI/ADR-RES ovarian = tested on: NCI/ADR-RES ovarian
OVCAR-3 ovarian = tested on: OVCAR-3 ovarian
OVCAR-4 ovarian = tested on: OVCAR-4 ovarian
SK-MEL-5 melanoma = tested on: SK-MEL-5 melanoma
SNB-19 CNS = tested on: SNB-19 CNS
SR leukemia = tested on: SR leukemia
SW-620 colon = tested on: SW-620 colon
TK-10 renal = tested on: TK-10 renal
U251 CNS = tested on: U251 CNS
UACC-62 melanoma = tested on: UACC-62 melanoma
UO-31 renal = tested on: UO-31 renal

## O=C(CSCC(=O)N/N=C\c1ccc(O)c(O)c1O)N/N=C\c1ccc(O)c(O)c1O
ACHN renal
  TGI: 22 µM
CAKI-1 renal
  TGI: 37.1 µM
DU-145 prostate
  TGI: 29.1 µM
HCT-15 colon
  TGI: 29.1 µM
HOP-92 NSCLC
  TGI: > 100 µM
M14 melanoma
  TGI: 21.5 µM
MALME-3M melanoma
  TGI: 52.3 µM
MCF7 breast
  TGI: 57.4 µM
MDA-MB-231 breast
  TGI: 78.1 µM
NCI/ADR-RES ovarian
  TGI: 3.16 µM
OVCAR-3 ovarian
  TGI: 17.6 µM
OVCAR-4 ovarian
  TGI: 9.22 µM
SK-MEL-5 melanoma
  TGI: 36.3 µM
SNB-19 CNS
  TGI: > 100 µM
SR leukemia
  TGI: 8.18 µM
SW-620 colon
  TGI: 12.8 µM
TK-10 renal
  TGI: 42 µM
U251 CNS
  TGI: 19.2 µM
UACC-62 melanoma
  TGI: 41.8 µM
UO-31 renal
  TGI: 34.7 µM

## CCOC(=O)c1c(N2CCCC2)[nH]c(=O)c(C(c2ccc(Cl)c([N+](=O)[O-])c2)c2c(O)c(C(=O)OCC)c(N3CCCC3)[nH]c2=O)c1O
ACHN renal
  TGI: > 100 µM
CAKI-1 renal
  TGI: 60.6 µM
DU-145 prostate
  TGI: > 100 µM
HCT-15 colon
  TGI: > 100 µM
HOP-92 NSCLC
  TGI: 58.3 µM
M14 melanoma
  TGI: 42.7 µM
MALME-3M melanoma
  TGI: 84.6 µM
MCF7 breast
  TGI: > 100 µM
MDA-MB-231 breast
  TGI: 50.5 µM
NCI/ADR-RES ovarian
  TGI: 73.4 µM
OVCAR-3 ovarian
  TGI: > 100 µM
OVCAR-4 ovarian
  TGI: > 100 µM
SK-MEL-5 melanoma
  TGI: > 100 µM
SNB-19 CNS
  TGI: 49.9 µM
SR leukemia
  TGI: > 100 µM
SW-620 colon
  TGI: > 100 µM
TK-10 renal
  TGI: 59.2 µM
U251 CNS
  TGI: 36.9 µM
UACC-62 melanoma
  TGI: 86 µM
UO-31 renal
  TGI: 66.6 µM

## CN(C)c1ccc(/C=N/c2nc3cc4sc(/N=C/c5ccc(N(C)C)cc5)nc4cc3s2)cc1
ACHN renal
  TGI: > 100 µM
CAKI-1 renal
  TGI: > 100 µM
DU-145 prostate
  TGI: 99.1 µM
HCT-15 colon
  TGI: > 100 µM
HOP-92 NSCLC
  TGI: > 100 µM
M14 melanoma
  TGI: > 100 µM
MALME-3M melanoma
  TGI: > 100 µM
MCF7 breast
  TGI: > 100 µM
MDA-MB-231 breast
  TGI: > 100 µM
NCI/ADR-RES ovarian
  TGI: > 100 µM
OVCAR-3 ovarian
  TGI: > 100 µM
OVCAR-4 ovarian
  TGI: > 100 µM
SK-MEL-5 melanoma
  TGI: > 100 µM
SNB-19 CNS
  TGI: > 100 µM
SR leukemia
  TGI: > 100 µM
SW-620 colon
  TGI: > 100 µM
TK-10 renal
  TGI: > 100 µM
U251 CNS
  TGI: > 100 µM
UACC-62 melanoma
  TGI: > 100 µM
UO-31 renal
  TGI: > 100 µM

## COc1c(C(C)(C)C)cc(CC2C(=O)C=CC2=O)cc1C(C)(C)C
ACHN renal
  TGI: 22.5 µM
CAKI-1 renal
  TGI: 30.5 µM
DU-145 prostate
  TGI: 15.5 µM
HCT-15 colon
  TGI: 37.6 µM
HOP-92 NSCLC
  TGI: 37 µM
M14 melanoma
  TGI: 39.6 µM
MALME-3M melanoma
  TGI: 49.6 µM
MCF7 breast
  TGI: 45.5 µM
MDA-MB-231 breast
  TGI: 36.5 µM
NCI/ADR-RES ovarian
  TGI: > 80.6 µM
OVCAR-3 ovarian
  TGI: 33.9 µM
OVCAR-4 ovarian
  TGI: 89.5 µM
SK-MEL-5 melanoma
  TGI: 33.9 µM
SNB-19 CNS
  TGI: 33.9 µM
SR leukemia
  TGI: 19.1 µM
SW-620 colon
  TGI: 28.2 µM
TK-10 renal
  TGI: 12.1 µM
U251 CNS
  TGI: 35.4 µM
UACC-62 melanoma
  TGI: 33.2 µM
UO-31 renal
  TGI: 27.5 µM

## O=S(=O)(O)c1ccc2c(N=Nc3ccc(S(=O)(=O)O)c4ccccc34)c(O)c(S(=O)(=O)O)cc2c1
ACHN renal
  TGI: > 100 µM
CAKI-1 renal
  TGI: > 100 µM
DU-145 prostate
  TGI: > 100 µM
HCT-15 colon
  TGI: > 100 µM
HOP-92 NSCLC
  TGI: > 100 µM
M14 melanoma
  TGI: > 100 µM
MALME-3M melanoma
  TGI: > 100 µM
MCF7 breast
  TGI: > 100 µM
MDA-MB-231 breast
  TGI: > 100 µM
NCI/ADR-RES ovarian
  TGI: > 100 µM
OVCAR-3 ovarian
  TGI: > 100 µM
OVCAR-4 ovarian
  TGI: > 100 µM
SK-MEL-5 melanoma
  TGI: > 100 µM
SNB-19 CNS
  TGI: > 100 µM
SR leukemia
  TGI: > 100 µM
SW-620 colon
  TGI: > 100 µM
TK-10 renal
  TGI: > 100 µM
U251 CNS
  TGI: > 100 µM
UACC-62 melanoma
  TGI: > 100 µM
UO-31 renal
  TGI: > 100 µM

## O=C1OCC(c2ccc(Cl)cc2)=C1Cl
ACHN renal
  TGI: > 100 µM
CAKI-1 renal
  TGI: 88.4 µM
DU-145 prostate
  TGI: > 100 µM
HCT-15 colon
  TGI: > 100 µM
HOP-92 NSCLC
  TGI: 58.9 µM
M14 melanoma
  TGI: 41.8 µM
MALME-3M melanoma
  TGI: 32.7 µM
MCF7 breast
  TGI: 44.6 µM
MDA-MB-231 breast
  TGI: 98.6 µM
NCI/ADR-RES ovarian
  TGI: 55.8 µM
OVCAR-3 ovarian
  TGI: 44.4 µM
OVCAR-4 ovarian
  TGI: > 100 µM
SK-MEL-5 melanoma
  TGI: 31.5 µM
SNB-19 CNS
  TGI: > 100 µM
SR leukemia
  TGI: 39.2 µM
SW-620 colon
  TGI: 61.2 µM
TK-10 renal
  TGI: 60.6 µM
U251 CNS
  TGI: > 100 µM
UACC-62 melanoma
  TGI: 45.9 µM
UO-31 renal
  TGI: 33.9 µM

## O=CC1C(Cl)=Nc2nc3ccccc3n2C1c1ccccc1 (stereo not given)
ACHN renal
  TGI: 33.3 µM
CAKI-1 renal
  TGI: 46.6 µM
DU-145 prostate
  TGI: 31.4 µM
HCT-15 colon
  TGI: 30.9 µM
HOP-92 NSCLC
  TGI: 25.5 µM
M14 melanoma
  TGI: 64.6 µM
MALME-3M melanoma
  TGI: 52.5 µM
MCF7 breast
  TGI: 42.7 µM
MDA-MB-231 breast
  TGI: 38.6 µM
NCI/ADR-RES ovarian
  TGI: 65.6 µM
OVCAR-3 ovarian
  TGI: 43.2 µM
OVCAR-4 ovarian
  TGI: 44 µM
SK-MEL-5 melanoma
  TGI: 45.5 µM
SNB-19 CNS
  TGI: > 100 µM
SR leukemia
  TGI: 14.4 µM
SW-620 colon
  TGI: 40.2 µM
TK-10 renal
  TGI: 51.4 µM
U251 CNS
  TGI: 33.7 µM
UACC-62 melanoma
  TGI: 50 µM
UO-31 renal
  TGI: 48.4 µM

— PubChem BioAssay (NCI)
